# In PubChem BioAssay (NCI):
#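 Step 1: Grow cells in 96-well plates. Step 2: Expose to compound for 48 hours at 5 concentrations. Step 3: Interpolate endpoints linearly; if unreached, use highest concentration. TGI marks complete inhibition of growth.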
# Columns and labels:
# Assay in all cases: NCI tumour cell line growth inhibition, 48 h
# [1] = system: 786-0 renal
# [2] = system: A549 NSCLC
# [3] = system: ACHN renal
# [4] = system: BT-549 breast
# [5] = system: CAKI-1 renal
# [6] = system: CCRF-CEM leukemia
# [7] = system: COLO 205 colon
# [8] = system: DU-145 prostate
# [9] = system: EKVX NSCLC
# [10] = system: HCC-2998 colon
# [11] = system: HCT-116 colon
# [12] = system: HCT-15 colon
# [13] = system: HL-60(TB) leukemia
# [14] = system: HOP-62 NSCLC
# [15] = system: HOP-92 NSCLC
# [16] = system: HS 578T breast
# [17] = system: HT29 colon
# [18] = system: IGROV1 ovarian
# [19] = system: K-562 leukemia
# [20] = system: KM12 colon
# [21] = system: LOX IMVI melanoma
# [22] = system: M14 melanoma
# [23] = system: MCF7 breast
# [24] = system: MDA-MB-231 breast
# [25] = system: MDA-MB-435
# [26] = system: MDA-N
# [27] = system: MOLT-4 leukemia
# [28] = system: NCI-H226 lung
# [29] = system: NCI-H23 lung
# [30] = system: NCI-H460 lung
# [31] = system: NCI-H522 lung
# [32] = system: NCI/ADR-RES ovarian
# [33] = system: OVCAR-3 ovarian
# [34] = system: OVCAR-4 ovarian
# [35] = system: OVCAR-5 ovarian
# [36] = system: OVCAR-8 ovarian
# [37] = system: PC-3 prostate
# [38] = system: RPMI-8226 leukemia
# [39] = system: RXF 393 renal
# [40] = system: SF-268 CNS
# [41] = system: SF-295 CNS
# [42] = system: SF-539 CNS
# [43] = system: SK-MEL-2 melanoma
# [44] = system: SK-MEL-28 melanoma
# [45] = system: SK-MEL-5 melanoma
# [46] = system: SK-OV-3 ovarian
# [47] = system: SN12C renal
# [48] = system: SNB-19 CNS
# [49] = system: SNB-75 CNS
# [50] = system: SW-620 colon
# [51] = system: T-47D breast
# [52] = system: TK-10 renal
# [53] = system: U251 CNS
# [54] = system: UACC-257 melanoma
# [55] = system: UACC-62 melanoma
# [56] = system: UO-31 renal
# [57] = system: A498 renal
# [58] = system: MALME-3M melanoma
# [59] = system: SR leukemia
smiles,measurement,setting,value
O=C1C(C=NC(=S)c2ccccc2)=C(O)c2ccccc21,TGI,[1],> 66.7 µM
same,TGI,[2],> 100 µM
same,TGI,[3],> 100 µM
same,TGI,[4],> 94 µM
same,TGI,[5],> 100 µM
same,TGI,[6],53.9 µM
same,TGI,[7],> 100 µM
same,TGI,[8],> 100 µM
same,TGI,[9],> 100 µM
same,TGI,[10],> 100 µM
same,TGI,[11],> 100 µM
same,TGI,[12],> 100 µM
same,TGI,[13],22 µM
same,TGI,[14],> 100 µM
same,TGI,[15],> 84.8 µM
same,TGI,[16],> 100 µM
same,TGI,[17],> 100 µM
same,TGI,[18],> 70.5 µM
same,TGI,[19],> 100 µM
same,TGI,[20],> 100 µM
same,TGI,[21],> 67.9 µM
same,TGI,[22],> 100 µM
same,TGI,[23],> 100 µM
same,TGI,[24],> 100 µM
same,TGI,[25],> 100 µM
same,TGI,[26],> 100 µM
same,TGI,[27],69.3 µM
same,TGI,[28],> 100 µM
same,TGI,[29],> 100 µM
same,TGI,[30],> 100 µM
same,TGI,[31],50.9 µM
same,TGI,[32],> 100 µM
same,TGI,[33],> 100 µM
same,TGI,[34],> 100 µM
same,TGI,[35],> 100 µM
same,TGI,[36],> 100 µM
same,TGI,[37],> 100 µM
same,TGI,[38],67.6 µM
same,TGI,[39],> 100 µM
same,TGI,[40],> 100 µM
same,TGI,[41],> 100 µM
same,TGI,[42],> 100 µM
same,TGI,[43],> 100 µM
same,TGI,[44],> 100 µM
same,TGI,[45],> 100 µM
same,TGI,[46],85.6 µM
same,TGI,[47],> 100 µM
same,TGI,[48],> 100 µM
same,TGI,[49],> 100 µM
same,TGI,[50],> 100 µM
same,TGI,[51],> 100 µM
same,TGI,[52],> 100 µM
same,TGI,[53],> 100 µM
same,TGI,[54],> 100 µM
same,TGI,[55],> 100 µM
same,TGI,[56],> 88.9 µM
S=C(Nc1ccccc1)c1ccc(CN2CCCCC2)s1,TGI,[1],34.2 µM
same,TGI,[57],37.4 µM
same,TGI,[2],98.3 µM
same,TGI,[3],> 100 µM
same,TGI,[4],61.3 µM
same,TGI,[5],48.8 µM
same,TGI,[6],41.3 µM
same,TGI,[7],36.4 µM
same,TGI,[8],> 100 µM
same,TGI,[9],> 100 µM
same,TGI,[10],37.9 µM
same,TGI,[11],34.5 µM
same,TGI,[12],36.2 µM
same,TGI,[13],34.5 µM
same,TGI,[14],64.8 µM
same,TGI,[16],60.5 µM
same,TGI,[17],24.1 µM
same,TGI,[18],48.9 µM
same,TGI,[19],43.6 µM
same,TGI,[20],36.9 µM
same,TGI,[21],32.5 µM
same,TGI,[22],32.9 µM
same,TGI,[58],46.6 µM
same,TGI,[23],35.7 µM
same,TGI,[25],35.8 µM
same,TGI,[26],33.4 µM
same,TGI,[27],71.4 µM
same,TGI,[29],42.8 µM
same,TGI,[30],45.4 µM
same,TGI,[31],35.4 µM
same,TGI,[32],> 100 µM
same,TGI,[33],> 100 µM
same,TGI,[34],> 100 µM
same,TGI,[35],35 µM
same,TGI,[36],39.7 µM
same,TGI,[37],> 100 µM
same,TGI,[38],70.4 µM
same,TGI,[40],> 100 µM
same,TGI,[41],37.5 µM
same,TGI,[42],> 100 µM
same,TGI,[43],43.5 µM
same,TGI,[44],35.3 µM
same,TGI,[45],31.2 µM
same,TGI,[46],36.9 µM
same,TGI,[48],44 µM
same,TGI,[59],51.5 µM
same,TGI,[50],44.7 µM
same,TGI,[51],85.3 µM
same,TGI,[53],44.2 µM
same,TGI,[54],46.2 µM
same,TGI,[55],37.2 µM
same,TGI,[56],30.6 µM
CCc1n[nH]c(=O)n1O,TGI,[1],> 100 µM
same,TGI,[57],> 100 µM
same,TGI,[2],> 100 µM
same,TGI,[3],> 100 µM
same,TGI,[4],> 100 µM
same,TGI,[5],> 100 µM
same,TGI,[6],> 100 µM
same,TGI,[7],> 100 µM
same,TGI,[8],> 100 µM
same,TGI,[9],> 100 µM
same,TGI,[11],> 100 µM
same,TGI,[13],> 100 µM
same,TGI,[14],> 100 µM
same,TGI,[15],> 100 µM
same,TGI,[16],> 100 µM
same,TGI,[17],> 100 µM
same,TGI,[18],> 100 µM
same,TGI,[19],> 100 µM
same,TGI,[20],> 100 µM
same,TGI,[58],> 100 µM
same,TGI,[23],> 100 µM
same,TGI,[24],> 100 µM
same,TGI,[25],> 100 µM
same,TGI,[26],> 100 µM
same,TGI,[27],> 100 µM
same,TGI,[28],> 100 µM
same,TGI,[29],> 100 µM
same,TGI,[31],> 100 µM
same,TGI,[32],> 100 µM
same,TGI,[33],> 100 µM
same,TGI,[34],> 100 µM
same,TGI,[36],> 100 µM
same,TGI,[40],> 100 µM
same,TGI,[41],> 100 µM
same,TGI,[42],> 100 µM
same,TGI,[43],> 100 µM
same,TGI,[44],> 100 µM
same,TGI,[45],> 100 µM
same,TGI,[46],> 100 µM
same,TGI,[47],> 100 µM
same,TGI,[48],> 100 µM
same,TGI,[59],> 100 µM
same,TGI,[50],> 100 µM
same,TGI,[51],> 100 µM
same,TGI,[52],> 100 µM
same,TGI,[53],> 100 µM
same,TGI,[54],> 100 µM
same,TGI,[55],> 100 µM
same,TGI,[56],> 100 µM
COc1ccc(C(NS(=O)(=O)c2ccc(C)cc2)c2c(C(CBr)OC)c3ccccc3n2S(=O)(=O)c2ccccc2)cc1OC (stereo not given),TGI,[1],> 100 µM
same,TGI,[57],> 100 µM
same,TGI,[2],> 100 µM
same,TGI,[3],> 100 µM
same,TGI,[4],> 100 µM
same,TGI,[5],> 100 µM
same,TGI,[6],> 100 µM
same,TGI,[7],> 100 µM
same,TGI,[8],> 100 µM
same,TGI,[9],> 100 µM
same,TGI,[10],> 100 µM
same,TGI,[11],> 100 µM
same,TGI,[12],> 100 µM
same,TGI,[13],> 100 µM
same,TGI,[14],> 100 µM
same,TGI,[15],> 100 µM
same,TGI,[16],> 100 µM
same,TGI,[17],> 100 µM
same,TGI,[18],> 100 µM
same,TGI,[19],> 100 µM
same,TGI,[20],> 100 µM
same,TGI,[21],> 100 µM
same,TGI,[22],> 100 µM
same,TGI,[58],> 100 µM
same,TGI,[23],> 100 µM
same,TGI,[24],> 100 µM
same,TGI,[25],> 100 µM
same,TGI,[26],> 100 µM
same,TGI,[27],> 100 µM
same,TGI,[28],> 100 µM
same,TGI,[29],> 100 µM
same,TGI,[30],> 100 µM
same,TGI,[31],> 100 µM
same,TGI,[32],> 100 µM
same,TGI,[33],> 100 µM
same,TGI,[34],> 100 µM
same,TGI,[35],> 100 µM
same,TGI,[36],> 100 µM
same,TGI,[37],> 100 µM
same,TGI,[39],> 100 µM
same,TGI,[40],> 100 µM
same,TGI,[41],> 100 µM
same,TGI,[42],> 100 µM
same,TGI,[43],> 100 µM
same,TGI,[44],> 100 µM
same,TGI,[45],> 100 µM
same,TGI,[46],> 100 µM
same,TGI,[47],> 100 µM
same,TGI,[48],> 100 µM
same,TGI,[49],> 100 µM
same,TGI,[50],> 100 µM
same,TGI,[51],> 100 µM
same,TGI,[52],> 100 µM
same,TGI,[53],> 100 µM
same,TGI,[54],> 100 µM
same,TGI,[55],> 100 µM
same,TGI,[56],> 100 µM
O=S(=O)(O)c1cc(S(=O)(=O)O)c2c(Nc3ccnc4ccccc34)ccc(S(=O)(=O)O)c2c1,TGI,[1],> 100 µM
same,TGI,[57],> 100 µM
same,TGI,[2],> 100 µM
same,TGI,[3],> 100 µM
same,TGI,[4],> 100 µM
same,TGI,[5],> 100 µM
same,TGI,[6],> 100 µM
same,TGI,[7],> 100 µM
same,TGI,[8],> 100 µM
same,TGI,[9],> 100 µM
same,TGI,[10],> 100 µM
same,TGI,[11],> 100 µM
same,TGI,[12],> 100 µM
same,TGI,[13],> 100 µM
same,TGI,[14],> 100 µM
same,TGI,[16],> 100 µM
same,TGI,[17],> 100 µM
same,TGI,[18],> 100 µM
same,TGI,[20],> 100 µM
same,TGI,[21],> 100 µM
same,TGI,[22],> 100 µM
same,TGI,[58],> 100 µM
same,TGI,[23],> 100 µM
same,TGI,[24],> 100 µM
same,TGI,[25],> 100 µM
same,TGI,[26],> 100 µM
same,TGI,[27],> 100 µM
same,TGI,[28],> 100 µM
same,TGI,[29],> 100 µM
same,TGI,[30],> 100 µM
same,TGI,[31],> 100 µM
same,TGI,[32],> 100 µM
same,TGI,[33],> 100 µM
same,TGI,[34],> 100 µM
same,TGI,[35],> 100 µM
same,TGI,[36],> 100 µM
same,TGI,[37],> 100 µM
same,TGI,[38],> 100 µM
same,TGI,[39],> 100 µM
same,TGI,[40],> 100 µM
same,TGI,[41],> 100 µM
same,TGI,[42],> 100 µM
same,TGI,[43],> 100 µM
same,TGI,[44],> 100 µM
same,TGI,[45],> 100 µM
same,TGI,[46],> 100 µM
same,TGI,[47],> 100 µM
same,TGI,[48],> 100 µM
same,TGI,[49],> 100 µM
same,TGI,[50],> 100 µM
same,TGI,[51],> 100 µM
same,TGI,[52],> 100 µM
same,TGI,[53],> 100 µM
same,TGI,[54],> 100 µM
same,TGI,[55],> 100 µM
same,TGI,[56],> 100 µM
